Reference: ChEMBL document CHEMBL1201862, “PubChem BioAssay data set” (2004)
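96-well plates; 48 h exposure; 5 concentrations. Endpoints by linear interpolation between flanking doses. Not reached: highest tested concentration assigned. Abbreviation: GI50, concentration required for 50% inhibition of growth.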 Calls of active or inactive are those of the source. Cut-off read from the data, not from the text of the source: active = GI50 up to about 1.1 µM and inactive = higher.

Experiments:
Assay in all cases: NCI anticancer screen, dose series, 48 h
NCI-H23 = system: NCI-H23
SK-OV-3 = system: SK-OV-3
A549 = system: A549
IGROV-1 = system: IGROV-1
786-0 = system: 786-0
NCI-H522 = system: NCI-H522
SR = system: SR
HOP-92 = system: HOP-92
RPMI-8226 = system: RPMI-8226
KM-20L2 = system: KM-20L2
UACC-62 = system: UACC-62
K562 = system: K562
SW-620 = system: SW-620
Malme-3M = system: Malme-3M
NCI-H226 = system: NCI-H226
EKVX = system: EKVX
XF498 = system: XF498
MDA-MB-231 = system: MDA-MB-231
MDA-N = system: MDA-N
MCF7 = system: MCF7

## O=C(c1ccc(Cl)cc1)N(C(=S)N1CCN(c2ccccn2)CC1)c1ccccc1
NCI-H23
  GI50: > 100 µM (inactive)
SK-OV-3
  GI50: > 100 µM (inactive)
A549
  GI50: 94.2 µM (inactive)
IGROV-1
  GI50: > 100 µM (inactive)
786-0
  GI50: > 100 µM (inactive)
NCI-H522
  GI50: > 100 µM (inactive)
SR
  GI50: 39.3 µM (inactive)
HOP-92
  GI50: > 100 µM (inactive)
RPMI-8226
  GI50: 82.4 µM (inactive)
KM-20L2
  GI50: > 100 µM (inactive)
UACC-62
  GI50: > 100 µM (inactive)
K562
  GI50: 41.7 µM (inactive)
SW-620
  GI50: > 100 µM (inactive)
Malme-3M
  GI50: > 100 µM (inactive)
NCI-H226
  GI50: 24.9 µM (inactive)

## CC12CCC([C@H](N3CCOCC3)/C1=N\OCCN1CCCC1)C2(C)C (stereo not given in full)
EKVX
  GI50: > 100 µM (inactive)
NCI-H23
  GI50: > 100 µM (inactive)
SK-OV-3
  GI50: > 100 µM (inactive)
A549
  GI50: > 100 µM (inactive)
IGROV-1
  GI50: > 100 µM (inactive)
786-0
  GI50: > 100 µM (inactive)
NCI-H522
  GI50: > 100 µM (inactive)
SR
  GI50: > 100 µM (inactive)
HOP-92
  GI50: > 100 µM (inactive)
RPMI-8226
  GI50: > 100 µM (inactive)
KM-20L2
  GI50: > 100 µM (inactive)
UACC-62
  GI50: > 100 µM (inactive)
K562
  GI50: > 100 µM (inactive)
SW-620
  GI50: > 100 µM (inactive)
Malme-3M
  GI50: > 100 µM (inactive)
NCI-H226
  GI50: > 100 µM (inactive)

## C=CCC(O)c1cc(OC)ccc1OC (stereo not given)
EKVX
  GI50: > 100 µM (inactive)
XF498
  GI50: > 100 µM (inactive)
SK-OV-3
  GI50: > 100 µM (inactive)
A549
  GI50: > 100 µM (inactive)
IGROV-1
  GI50: > 100 µM (inactive)
786-0
  GI50: > 100 µM (inactive)
NCI-H522
  GI50: > 100 µM (inactive)
HOP-92
  GI50: > 100 µM (inactive)
RPMI-8226
  GI50: > 100 µM (inactive)
UACC-62
  GI50: > 100 µM (inactive)
K562
  GI50: > 100 µM (inactive)
SW-620
  GI50: > 100 µM (inactive)
Malme-3M
  GI50: > 100 µM (inactive)
NCI-H226
  GI50: > 100 µM (inactive)

## COC1C(OC(=O)c2ccc(C)[nH]2)C(O)C(Oc2ccc3c(O)c(NC(=O)c4c[nH]c(C(=O)Nc5c(O)c6ccc(OC7OC(C)(C)C(OC)C(OC(=O)c8ccc(C)[nH]8)C7O)c(C)c6oc5=O)c4C)c(=O)oc3c2C)OC1(C)C (stereo not given)
EKVX
  GI50: 3.82 µM (inactive)
XF498
  GI50: 2.18 µM (inactive)
NCI-H23
  GI50: 1.24 µM (inactive)
SK-OV-3
  GI50: 2.15 µM (inactive)
A549
  GI50: 3.39 µM (inactive)
IGROV-1
  GI50: 1.3 µM (inactive)
786-0
  GI50: 2.1 µM (inactive)
HOP-92
  GI50: 2.44 µM (inactive)
RPMI-8226
  GI50: 1.53 µM (inactive)
KM-20L2
  GI50: 2.4 µM (inactive)
UACC-62
  GI50: 0.724 µM (active)
K562
  GI50: 2.84 µM (inactive)
SW-620
  GI50: 4.34 µM (inactive)
Malme-3M
  GI50: 2.09 µM (inactive)
NCI-H226
  GI50: 1.96 µM (inactive)

## CCOC(=O)/C(=C/c1cccc(C#N)c1)N(CC)CC
EKVX
  GI50: > 100 µM (inactive)
XF498
  GI50: > 100 µM (inactive)
NCI-H23
  GI50: > 100 µM (inactive)
SK-OV-3
  GI50: > 100 µM (inactive)
A549
  GI50: > 100 µM (inactive)
IGROV-1
  GI50: > 100 µM (inactive)
786-0
  GI50: > 100 µM (inactive)
NCI-H522
  GI50: > 100 µM (inactive)
SR
  GI50: > 100 µM (inactive)
HOP-92
  GI50: > 100 µM (inactive)
RPMI-8226
  GI50: > 100 µM (inactive)
UACC-62
  GI50: > 100 µM (inactive)
K562
  GI50: > 100 µM (inactive)
SW-620
  GI50: > 100 µM (inactive)
Malme-3M
  GI50: > 100 µM (inactive)
NCI-H226
  GI50: > 100 µM (inactive)

## C=CC/N=C1\NC(=O)C(CC(=O)Nc2ccc(C)cc2)S1 (stereo not given)
EKVX
  GI50: > 100 µM (inactive)
XF498
  GI50: > 100 µM (inactive)
NCI-H23
  GI50: > 100 µM (inactive)
SK-OV-3
  GI50: > 100 µM (inactive)
A549
  GI50: > 100 µM (inactive)
IGROV-1
  GI50: > 100 µM (inactive)
786-0
  GI50: > 100 µM (inactive)
NCI-H522
  GI50: > 100 µM (inactive)
RPMI-8226
  GI50: > 100 µM (inactive)
KM-20L2
  GI50: > 100 µM (inactive)
UACC-62
  GI50: > 100 µM (inactive)
K562
  GI50: > 100 µM (inactive)
SW-620
  GI50: > 100 µM (inactive)
Malme-3M
  GI50: > 100 µM (inactive)
NCI-H226
  GI50: > 100 µM (inactive)

## N=C1NC2(O)C(=O)c3ccccc3C2(O)N1 (stereo not given)
EKVX
  GI50: > 100 µM (inactive)
NCI-H23
  GI50: > 100 µM (inactive)
SK-OV-3
  GI50: > 100 µM (inactive)
A549
  GI50: > 100 µM (inactive)
IGROV-1
  GI50: > 100 µM (inactive)
786-0
  GI50: > 100 µM (inactive)
NCI-H522
  GI50: > 100 µM (inactive)
SR
  GI50: > 100 µM (inactive)
HOP-92
  GI50: > 100 µM (inactive)
RPMI-8226
  GI50: > 100 µM (inactive)
KM-20L2
  GI50: > 100 µM (inactive)
UACC-62
  GI50: > 100 µM (inactive)
K562
  GI50: > 100 µM (inactive)
SW-620
  GI50: > 100 µM (inactive)
Malme-3M
  GI50: > 100 µM (inactive)
NCI-H226
  GI50: > 100 µM (inactive)

## O=C1c2ccccc2C(=O)C2C3c4ccccc4C(c4ccccc43)C12 (stereo not given)
EKVX
  GI50: 14.7 µM (inactive)
NCI-H23
  GI50: 41.7 µM (inactive)
SK-OV-3
  GI50: 24.9 µM (inactive)
A549
  GI50: 28.7 µM (inactive)
IGROV-1
  GI50: 22.9 µM (inactive)
786-0
  GI50: 5.45 µM (inactive)
NCI-H522
  GI50: 31.3 µM (inactive)
SR
  GI50: 14.4 µM (inactive)
RPMI-8226
  GI50: 10.9 µM (inactive)
KM-20L2
  GI50: > 100 µM (inactive)
UACC-62
  GI50: 33 µM (inactive)
K562
  GI50: 15.9 µM (inactive)
SW-620
  GI50: > 100 µM (inactive)
Malme-3M
  GI50: 13.1 µM (inactive)
NCI-H226
  GI50: 77.3 µM (inactive)

## CCOC(=O)C1=C(C(=O)OCC)SC2(S1)C(C(=O)OCC)=C(C(=O)OCC)Sc1c2ssc1=O
EKVX
  GI50: 2.34 µM (inactive)
NCI-H23
  GI50: 1.93 µM (inactive)
SK-OV-3
  GI50: 6.12 µM (inactive)
A549
  GI50: 2.26 µM (inactive)
MDA-MB-231
  GI50: 2 µM (inactive)
IGROV-1
  GI50: 0.764 µM (active)
786-0
  GI50: 0.811 µM (active)
NCI-H522
  GI50: 1.36 µM (inactive)
SR
  GI50: < 0.01 µM (active)
HOP-92
  GI50: 1.35 µM (inactive)
RPMI-8226
  GI50: 1.59 µM (inactive)
UACC-62
  GI50: 1.94 µM (inactive)
K562
  GI50: 0.474 µM (active)
MDA-N
  GI50: 1.97 µM (inactive)
MCF7
  GI50: 1.74 µM (inactive)
SW-620
  GI50: 0.361 µM (active)
Malme-3M
  GI50: 1.98 µM (inactive)
NCI-H226
  GI50: 22.1 µM (inactive)
